The text below walks through data of patent US8623995B2, “Peptide conjugates and fluorescence detection methods for intracellular caspase assay” (Applied Biosystems, LLC, priority 2001, dated 2014).

The star is where a group is joined. Cbz = O=C(OCc1ccccc1)*; CH2F = FC*

One assay deals with Jurkat cells. The assay can be described thus: Intracellular caspase assay with peptide conjugate 9: apoptosis induction. Type of assay: cell-based, Human. To be noted: peptide conjugate 9 (FIG. 13). Here is the method:
(§1) One method for introducing the peptide conjugates into cells to induce apoptosis and measure caspase activity includes the following steps: • 1. […] The cells will adhere to well bottoms in 1 to 24 hours. Any number of different sample cells or any combination of cells, inhibitors or apoptosis inducers can be assayed. Typically 10,000 cells per well are plated in about 100 μl of tissue culture media. • 2. Add an apoptosis inducer, e.g. camptothecin or staurosporine, dissolved in media and/or solvent. Different concentrations can be used to study dose-response. • 3. Let the cells stand for about 24 hours at 37° C., depending on the inducer. • 4. […] Let stand for about 90 minutes at 37° C. • 5. Transfer plates to a fluorescent plate reading device, cell sorter, flow cytometer, laser imager, microscope, or other device and read the content of the wells.
(§2) A data spreadsheet assigns numerical values of fluorescence intensity and peak heights. The greyscale image has intensity content, like an autoradiogram. […] The cells are simply counted by a cell counting algorithm as either blue or red depending on the ratio of channel 2 to channel 1 fluorescence intensity, and independent of intensity values. The fraction of apoptotic cells is determined by identifying the apoptotic population in each well and dividing by the total number of cells detected. […]

The subject of a further assay is HeLa cells. The assay is described as above. Type of assay: cell-based, Human. The following applies: peptide conjugate 9 (FIG. 13). The procedure:
as §1, §2

Another assay has as its system NT-2 cells. The assay can be described thus: Intracellular caspase assay on FMAT 8100 HTS System with peptide conjugate 9: apoptosis induction. Type of assay: cell-based, Human. The procedure:
One method for introducing the peptide conjugates into cells to induce apoptosis and measure caspase activity includes the following steps: • 1. Plate the eukaryotic cells in RPMI 1640 media in the wells of a tissue culture-treated 96-well plate at 37° C. The cells will adhere to well bottoms in 1 to 24 hours. Any number of different sample cells or any combination of cells, inhibitors or apoptosis inducers can be assayed. Typically 10,000 cells per well are plated in about 100 μl of tissue culture media. • 2. Add an apoptosis inducer, e.g. camptothecin or staurosporine, dissolved in media and/or solvent. Different concentrations can be used to study dose-response. • 3. Let the cells stand for about 24 hours at 37° C., depending on the inducer. • 4. Add the peptide conjugate, dissolved in media and/or solvent in a range of 1 to 10 μM, e.g. 2.5 μM, to every well, including controls. Let stand for about 90 minutes at 37° C. • 5. Transfer plates to a fluorescent plate reading device, cell sorter, flow cytometer, laser imager, microscope, or other device and read the content of the wells.
A data spreadsheet assigns numerical values of fluorescence intensity and peak heights. The greyscale image has intensity content, like an autoradiogram. […] The cells are simply counted by a cell counting algorithm as either blue or red depending on the ratio of channel 2 to channel 1 fluorescence intensity, and independent of intensity values. The fraction of apoptotic cells is determined by identifying the apoptotic population in each well and dividing by the total number of cells detected. The ratio of red (channel 2) to blue (channel 1) inversely correlates to the apoptotic fraction. In other words:
[formula] […] Effects of introducing apoptosis inducers and caspase inhibitors to different cells under variable conditions can thus be measured by the mix-and-read protocols on the FMAT 8100 System. A dose response is determined when this fraction (% apoptotic) is plotted as a function of the concentration of camptothecin in the well (FIG. 11), and other apoptosis inducers (FIGS. 12 and 13). […]

The next assay deals with T1, caspase (Homo sapiens, UniProt P42574).
T1 construct: endogenous in cells; host or cells: NT-2 cells
T1 sequence (P42574 29-175 limits assumed): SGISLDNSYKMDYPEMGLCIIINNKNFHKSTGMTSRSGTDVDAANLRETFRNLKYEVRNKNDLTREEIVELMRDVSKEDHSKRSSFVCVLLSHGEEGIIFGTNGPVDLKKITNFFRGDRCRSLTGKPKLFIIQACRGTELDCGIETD
T1 sequence (P42574 176-277 limits assumed): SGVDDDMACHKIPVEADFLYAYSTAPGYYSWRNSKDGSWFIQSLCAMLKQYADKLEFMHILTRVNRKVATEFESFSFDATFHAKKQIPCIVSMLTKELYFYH
The assay can be described thus: Intracellular caspase assay on FMAT 8100: caspase inhibitors on cleavage of peptide conjugate 9 in NT-2 cells. Type of assay: cell-based. To be noted: inhibitor at 50 μM, NT-2 cells with CMP to induce apoptosis (FIG. 10). The procedure:
as §1
The plate was incubated at 37° C. for 90 minutes.

With `CN[C@@H]1C[C@H]2O[C@@](C)([C@@H]1OC)n1c3ccccc3c3c4c(c5c6ccccc6n2c5c31)C(=O)NC4` [staurosporine], the “Threshold concentration above which fraction of apoptotic cells correlates with concentration” value is “about 0.05 μM” in the assay on Jurkat cells and roughly 0.5 µM with HeLa cells.

For the compound `CC[C@@]1(O)C(=O)OCc2c1cc1n(c2=O)Cc2cc3ccccc3nc2-1` [camptothecin], the “Induction of apoptosis / caspase activity (donor dye emission, channel 1)” value in the assay on NT-2 cells (500 nM, peptide conjugate 9 (FIG. 9)) is reported as “caspase activity is evident”. Moreover, the “Dose response: fraction of apoptotic cells” value in the assay on NT-2 cells (0.0001 to 10 μM, 24 hours, peptide conjugate 9 (FIG. 11)) is listed as “fraction of apoptotic cells correlates with camptothecin concentration”.

Take `COc1cccc2c1C(=O)c1c(O)c3c(c(O)c1C2=O)C[C@@](O)(C(=O)CO)C[C@@H]3O[C@H]1C[C@H](N)[C@H](O)[C@H](C)O1` [doxirubicin]: the “Concentration above which most of the cells were detected as apoptotic” value in the assay with NT-2 cells (peptide conjugate 9 (FIG. 12)) was “about 0.1 μM”.

With Cbz-Val-Ala-Asp-CH2F, the “Suppression of cleavage of peptide conjugate 9” value on caspase is listed as “complete suppression”.
